Data set [1] in a line: Epi-lutein study: plasma levels after oral administration (gavage) for 7 consecutive days. Type of data set: in vivo, Rats, Sprague-Dawley. Particulars: for Cmax: day 7, rat plasma; for AUC / AUC(0-t): rat, plasma; for AUC: read-out: AUC0-τ; for AUC(0-t): read-out: AUC0-12 h; for AUC0-12 h (dose corrected) / AUC0-τ (dose corrected) / Cmax (dose corrected): dose corrected to 0.1 mg Lutein/kg BW. How it is done: [table] Study Design: Oral administration (gavage) of Treatment I for 7 consecutive days in 5 rats followed by a 14 days wash-out period and oral administration (gavage) of Treatment II for 7 consecutive days Blood Sampling: On day 7 of treatment prior to treatment and 15 min, 1, 3, 6, 9, 12 and 24 hours after treatment. About 400 μL blood were be transferred to Vacutainer tubes containing EDTA. Whole blood samples were centrifuged, as soon as possible from the designated time of collection, at 1200 g for approximately 10 minutes. All plasma samples (at least 200 μL) were be stored deep frozen at ≦−30° C., until shipping on dry ice. [table] Plasma Analysis: Lutein, Epilutein, Zeaxanthin and Oxidized metabolites

Data set [2] is described as follows: Pharmacokinetics of lutein and zeaxanthin with/without epi-lutein after intravenous administration. Type of data set: in vivo, wistar rats. How it is done: 14 days wash-out period before this study
Subject: 3 wistar rats each group
Feeding type: intravenous administration
Group A: 4 mg lutein/Kg body weight
Group B: (2 mg lutein+2 mg epi-lutein)/Kg body weight
Group C: 4 mg zeaxanthin/Kg body weight
Group D: (2 mg zeaxanthin 2 mg epi-lutein)/Kg body weight
Blood sampling: 15, 30, 60 minutes, 3 and 6 hours after feeding

Setting [3] is: Treatment II (mixture together with epi-lutein).

Where two headings read alike, the source gives them in different places.

The Cmax is the peak of the concentration-time curve. Consider `CC1=C[C@@H](O)CC(C)(C)[C@H]1/C=C/C(C)=C/C=C/C(C)=C/C=C/C=C(C)/C=C/C=C(C)/C=C/C1=C(C)C[C@@H](O)CC1(C)C` [Epi-Lutein, (3R,3′S,6′R)-lutein], for which the AUC0-12 h in data set [1] (Treatment II (0.147 mg lutein + 0.135 mg epi-lutein/kg BW, oral gavage), day 7) was determined as 3724 ng·h/mL. In data set [1] (Treatment II (0.147 mg lutein + 0.135 mg epi-lutein/kg BW, oral gavage)), the Cmax was 428 ng/mL. Further, the AUC0-τ in data set [1] (Treatment II (0.147 mg lutein + 0.135 mg epi-lutein/kg BW, oral gavage), day 7, τ 24 hours) was determined as 6286 ng·h/mL.

As usually defined, the AUC(0-inf) is total exposure, with the tail of the curve extrapolated. Low values mean low exposure, high ones high exposure. In data set [2] (rat, 4 mg/kg, heading: AUC0-inf, wistar rats, intravenous, A 4 mg lutein/Kg, B 2 mg lutein+2 mg epi-lutein/Kg, C 4 mg zeaxanthin/Kg, D 2 mg zeaxanthin+2 mg epi-lutein/Kg, lutein (A,B) or zeaxanthin (C,D) in plasma), `CC1=C[C@H](O)CC(C)(C)[C@H]1/C=C/C(C)=C/C=C/C(C)=C/C=C/C=C(C)/C=C/C=C(C)/C=C/C1=C(C)C[C@@H](O)CC1(C)C` [Lutein, (3R,3′R,6′R)-beta, epsilon-carotene-3,3′-diol] registered an AUC(0-inf) of 21300 ng·h/mL. In addition, the AUC(0-t) in data set [2] (rat, 4 mg/kg, heading: AUC0-t, wistar rats, intravenous, A 4 mg lutein/Kg, B 2 mg lutein+2 mg epi-lutein/Kg, C 4 mg zeaxanthin/Kg, D 2 mg zeaxanthin+2 mg epi-lutein/Kg, lutein (A,B) or zeaxanthin (C,D) in plasma) was 11700 ng·h/mL; in data set [1] (Sprague-Dawley, 0.282 mg/kg BW, Treatment I (0.282 mg lutein/kg BW, oral gavage), day 7), 9780 ng·h/mL; in data set [1] (Sprague-Dawley, Treatment II (0.147 mg lutein + 0.135 mg epi-lutein/kg BW, oral gavage), day 7), 9340 ng·h/mL. In addition, the half-life in data set [2] (rat, 4 mg/kg, wistar rats, intravenous, A 4 mg lutein/Kg, B 2 mg lutein+2 mg epi-lutein/Kg, C 4 mg zeaxanthin/Kg, D 2 mg zeaxanthin+2 mg epi-lutein/Kg, lutein (A,B) or zeaxanthin (C,D) in plasma, read-out: T½) was 305 min. In addition, the “plasma half life after treatment with epi-lutein” value in data set [2] (wistar rats, intravenous, with vs without epi-lutein) is “substantially prolonged”. In data set [1] (0.1 mg lutein/kg BW mixed with approximately 0.1 mg epi-lutein/kg BW vs single compound, time interval 0-12 hours), the “increase in the pharmacokinetic parameters of lutein, dose corrected” value is “about 100%”. The maximum concentration (Cmax) in data set [1] (Sprague-Dawley, 0.282 mg/kg BW, Treatment I (0.282 mg lutein/kg BW, oral gavage), read-out: Cmax) came to 941 ng/mL; in data set [1] (Sprague-Dawley, Treatment II (0.147 mg lutein + 0.135 mg epi-lutein/kg BW, oral gavage), read-out: Cmax) it was 939 ng/mL. Moreover, the AUC in data set [1] (Sprague-Dawley, 0.282 mg/kg BW, Treatment I (0.282 mg lutein/kg BW, oral gavage), day 7, τ 24 hours) came to 18100 ng·h/mL; in data set [1] (Sprague-Dawley, Treatment II (0.147 mg lutein + 0.135 mg epi-lutein/kg BW, oral gavage), day 7, τ 24 hours), 14300 ng·h/mL. Further, the “AUC0-12 h (dose corrected)” value in data set [1] (Treatment I (pure compound)) is reported as 3261 ng × h × ml^−1/0.1 mg Lut/kg B; in data set [1] (setting [3]), 6230 ng × h × ml^−1/0.1 mg Lut/kg B. The figures for the “AUC0-τ (dose corrected)” value in data set [1] (Treatment I (pure compound)) and in data set [1] (setting [3]) were 6050 ng × h × ml^−1/0.1 mg Lut/kg B and 9560 ng × h × ml^−1/0.1 mg Lut/kg B, respectively. Moreover, the “Cmax (dose corrected)” value is 314 [ng/ml]/0.1 mg Lut/kg BW in data set [1] (Treatment I (pure compound)) and 626 [ng/ml]/0.1 mg Lut/kg BW in data set [1] (setting [3]).

As for `CC1=C(/C=C/C(C)=C/C=C/C(C)=C/C=C/C=C(C)/C=C/C=C(C)/C=C/C2=C(C)C[C@@H](O)CC2(C)C)C(C)(C)C[C@H](O)C1` [Zeaxanthin, (3R,3′R)-beta, beta carotene-3,3′-diol], in data set [2] (rat, in vivo, iv), the T½ is given as 300 min and the “plasma half life after treatment with epi-lutein” value was “substantially prolonged”.

These data come from US9849178B2, “Combination of carotenoids and epi-lutein” (Gupron GmbH, priority 2009, dated 2017).
